Experimental data reported in patent US20260285875A1, “INHIBITORS OF PARG” (858 Therapeutics, Inc., priority 2023, published 2026).

target: T1, cellular PARG (Homo sapiens, UniProt Q86W56); test: Nuclear PAR accumulation assay (immunofluorescence high-content imaging, MMS-treated HeLa cells); format: cell-based; conditions: 1 hour compound then MMS 50 μg/mL for an additional hour
T1 construct: endogenous in cells; host or cells: HeLa
Description: HeLa cells were plated at 15,000 cells/well in a 96-well plate the day before compound treatment and then treated with varying concentrations of test compound and incubated for 1 hour at 37° C.+5% CO2. Following test compound treatment, methylmethane sulfonate (MMS) was added to a final concentration of 50 μg/mL and the cells were incubated for an additional hour. Following treatment, the cells were fixed with ice cold 95% methanol and the plates sealed and placed at -20° C. for 15 minutes. The cells were then washed once with phosphate buffered saline (PBS) and permeabilized with 0.10% Triton-X 100 for 20 minutes at room temperature. […] The cells were then washed three times with PBS before incubation with a fluorescently conjugated goat anti-mouse antibody (Invitrogen A32723) diluted 1:500 in 5% FBS+0.1% Tween-20+PBS for 1 hour at room temperature. The cells were again washed three times with PBS and the nuclei labeled by incubating with 1 μg/mL DAPI (4′,6-diamidino-2-phenylindole). Nuclear PAR accumulation was evaluated using high-content fluorescence microscopy. Four fields for each well were acquired at 20× magnification resulting in at least 1,000 cells analyzed per well. […] Both the average intensity per nucleus and percent PAR positive cells were quantified. […] Concentration-response-curves and IC50 values were generated using four parameter logistic curve fit software.
Representative data for exemplary compounds is presented in Table 32, Table 33 and Table 34.

T1 sequence (Q86W56 whole entry): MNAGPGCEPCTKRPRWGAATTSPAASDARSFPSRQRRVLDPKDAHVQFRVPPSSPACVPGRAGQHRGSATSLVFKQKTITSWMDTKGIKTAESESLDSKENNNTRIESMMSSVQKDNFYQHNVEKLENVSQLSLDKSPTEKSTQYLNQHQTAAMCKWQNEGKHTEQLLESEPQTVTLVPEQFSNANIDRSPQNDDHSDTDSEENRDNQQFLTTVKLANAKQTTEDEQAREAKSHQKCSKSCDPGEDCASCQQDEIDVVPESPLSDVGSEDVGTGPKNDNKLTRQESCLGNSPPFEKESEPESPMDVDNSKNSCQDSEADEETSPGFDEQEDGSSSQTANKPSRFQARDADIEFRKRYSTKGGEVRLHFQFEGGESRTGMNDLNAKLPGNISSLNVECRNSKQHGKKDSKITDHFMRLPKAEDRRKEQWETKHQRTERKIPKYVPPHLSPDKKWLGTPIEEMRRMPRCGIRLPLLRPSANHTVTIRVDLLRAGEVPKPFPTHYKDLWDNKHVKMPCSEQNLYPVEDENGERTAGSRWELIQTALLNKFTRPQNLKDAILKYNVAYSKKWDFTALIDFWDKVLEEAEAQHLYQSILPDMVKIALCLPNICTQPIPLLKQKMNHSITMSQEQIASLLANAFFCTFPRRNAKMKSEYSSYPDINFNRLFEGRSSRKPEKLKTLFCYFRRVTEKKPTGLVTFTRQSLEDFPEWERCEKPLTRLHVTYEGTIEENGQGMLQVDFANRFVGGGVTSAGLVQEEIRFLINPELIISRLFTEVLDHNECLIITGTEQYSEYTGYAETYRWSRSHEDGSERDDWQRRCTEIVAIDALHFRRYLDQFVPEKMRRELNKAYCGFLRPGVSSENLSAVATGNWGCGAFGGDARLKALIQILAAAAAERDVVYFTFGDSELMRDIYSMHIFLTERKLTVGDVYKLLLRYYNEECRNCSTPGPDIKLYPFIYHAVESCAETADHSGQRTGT

Row | SMILES | IC50 [nM]
1 | C#CC1(C)CN=C2N(Cc3cnn(C)c3)C(=O)c3cc(S(=O)(=O)NC4(C)CC4)ccc3N21 (single isomer, unassigned) [Example 271, 1-ethynyl-1-methyl-4-((1-methyl-1H-pyrazol-4-yl)methyl)-N-(1-methylcyclopropyl)-5-oxo-1,2,4,5-tetrahydroimidazo[1,2-a]quinazoline-7-sulfonamide] | < 100
2 | C#CC1(C)CN=C2N(Cc3cnn(C)c3)C(=O)c3cc(S(=O)(=O)NC4(C)CC4)ccc3N21 (single isomer, unassigned) [Example 272, 1-ethynyl-1-methyl-4-((1-methyl-1H-pyrazol-4-yl)methyl)-N-(1-methylcyclopropyl)-5-oxo-1,2,4,5-tetrahydroimidazo[1,2-a]quinazoline-7-sulfonamide] | < 100
3 | C[C@@H]1CN=C2N(Cc3cnn(C)c3)C(=O)c3cc(S(=O)(=O)NC4(C)CC4)cc(C4CC4)c3N21 [Example 1, (R)-9-cyclopropyl-1-methyl-4-((1-methyl-1H-pyrazol-4-yl)methyl)-N-(1-methylcyclopropyl)-5-oxo-1,2,4,5-tetrahydroimidazo[1,2-a]quinazoline-7-sulfonamide] | < 100
4 | C[C@@H]1CN=C2N(Cc3cnn(C)c3)C(=O)c3cc(S(=O)(=O)NC4(C)CC4)cc(N4CCC4)c3N21 [Example 2, (R)-9-(azetidin-1-yl)-1-methyl-4-((1-methyl-1H-pyrazol-4-yl)methyl)-N-(1-methylcyclopropyl)-5-oxo-1,2,4,5-tetrahydroimidazo[1,2-a]quinazoline-7-sulfonamide] | < 100
5 | Cn1cc(CN2C(=O)c3cc(S(=O)(=O)NC4(C)CC4)cc(Br)c3N3CC(C)(C)N=C23)cn1 [Example 3, 9-bromo-2,2-dimethyl-4-((1-methyl-1H-pyrazol-4-yl)methyl)-N-(1-methylcyclopropyl)-5-oxo-1,2,4,5-tetrahydroimidazo[1,2-a]quinazoline-7-sulfonamide] | 100 to 1000
6 | CN1CC=C(c2cc(S(=O)(=O)NC3(C)CC3)cc3c2N2CC(C)(C)N=C2N(Cc2cnn(C)c2)C3=O)CC1 [Example 4, 2,2-dimethyl-9-(1-methyl-1,2,3,6-tetrahydropyridin-4-yl)-4-((1-methyl-1H-pyrazol-4-yl)methyl)-N-(1-methylcyclopropyl)-5-oxo-1,2,4,5-tetrahydroimidazo[1,2-a]quinazoline-7-sulfonamide] | < 100
7 | CCc1noc(C)c1CN1C(=O)c2cc(S(=O)(=O)NC3(C)CC3)ccc2N2C1=NC[C@H]2C [Example 5, (R)-4-((3-ethyl-5-methylisoxazol-4-yl)methyl)-1-methyl-N-(1-methylcyclopropyl)-5-oxo-1,2,4,5-tetrahydroimidazo[1,2-a]quinazoline-7-sulfonamide] | < 100
8 | C[C@@H]1CN=C2N(Cc3cnn(C)c3)C(=O)c3cc(S(=O)(=O)NC4(C)CC4)cc(-c4ccc(F)cn4)c3N21 [Example 6, (R)-9-(5-fluoropyridin-2-yl)-1-methyl-4-((1-methyl-1H-pyrazol-4-yl)methyl)-N-(1-methylcyclopropyl)-5-oxo-1,2,4,5-tetrahydroimidazo[1,2-a]quinazoline-7-sulfonamide] | < 100
9 | COCc1nocc1CN1C(=O)c2cc(S(=O)(=O)NC3(C)CC3)ccc2N2C1=NC[C@H]2C [Example 7, (R)-4-((3-(methoxymethyl)isoxazol-4-yl)methyl)-1-methyl-N-(1-methylcyclopropyl)-5-oxo-1,2,4,5-tetrahydroimidazo[1,2-a]quinazoline-7-sulfonamide] | 100 to 1000
10 | Cc1noc(C2CC2)c1CN1C(=O)c2cc(S(=O)(=O)NC3(C)CC3)ccc2N2C1=NC[C@H]2C [Example 8, (R)-4-((5-cyclopropyl-3-methylisoxazol-4-yl)methyl)-1-methyl-N-(1-methylcyclopropyl)-5-oxo-1,2,4,5-tetrahydroimidazo[1,2-a]quinazoline-7-sulfonamide] | < 100
11 | COc1ccc(CN2C(=O)c3cc(S(=O)(=O)NC4(C)CC4)ccc3N3C2=NC[C@H]3C)cc1 [Example 9, (R)-4-(4-methoxybenzyl)-1-methyl-N-(1-methylcyclopropyl)-5-oxo-1,2,4,5-tetrahydroimidazo[1,2-a]quinazoline-7-sulfonamide] | 100 to 1000
12 | C[C@@H]1CN=C2N(Cc3cnn(C)c3)C(=O)c3cc(S(=O)(=O)NC4(C)CC4)cc(N4CCN(C)CC4)c3N21 [Example 10, (R)-1-methyl-4-((1-methyl-1H-pyrazol-4-yl)methyl)-N-(1-methylcyclopropyl)-9-(4-methylpiperazin-1-yl)-5-oxo-1,2,4,5-tetrahy droimidazo[1,2-a]quinazoline-7-sulfonamide] | < 100
13 | Cn1cc(CN2C(=O)c3cc(S(=O)(=O)NC4(C)CC4)cc(C4=CCCC4)c3N3CC(C)(C)N=C23)cn1 [Example 11, 9-(cyclopent-1-en-1-yl)-2,2-dimethyl-4-((1-methyl-1H-pyrazol-4-yl)methyl)-N-(1-methylcyclopropyl)-5-oxo-1,2,4,5-tetrahydroimidazo[1,2-a]quinazoline-7-sulfonamide] | < 100
14 | Cn1cc(CN2C(=O)c3cc(S(=O)(=O)NC4(C)CC4)cc(C4=CCOCC4)c3N3CC(C)(C)N=C23)cn1 [Example 12, 9-(3,6-dihydro-2H-pyran-4-yl)-2,2-dimethyl-4-((1-methyl-1H-pyrazol-4-yl)methyl)-N-(1-methylcyclopropyl)-5-oxo-1,2,4,5-tetrahydroimidazo[1,2-a]quinazoline-7-sulfonamide] | < 100
15 | C[C@@H]1CN=C2N(Cc3cnn(C)c3)C(=O)c3cc(S(=O)(=O)NC4(C)CC4)cc(N4CCNCC4)c3N21 [Example 13, (R)-1-methyl-4-((1-methyl-1H-pyrazol-4-yl)methyl)-N-(1-methylcyclopropyl)-5-oxo-9-(piperazin-1-yl)-1,2,4,5-tetrahydroimidazo[1,2-a]quinazoline-7-sulfonamide] | 100 to 1000
16 | [2H]C([2H])(c1cnn(C)c1)N1C(=O)c2cc(S(=O)(=O)NC3(C)CC3)ccc2N2C1=NC[C@H]2C#CC1CC1 [Example 14, (R)-1-(cyclopropylethynyl)-4-((1-methyl-1H-pyrazol-4-yl)methyl-d2)-N-(1-methylcyclopropyl)-5-oxo-1,2,4,5-tetrahydroimidazo[1,2-a]quinazoline-7-sulfonamide] | < 100
17 | [2H]C([2H])(c1cnn(C)c1)N1C(=O)c2cc(S(=O)(=O)NC3(C)CC3)cc(Br)c2N2C1=NC[C@H]2C#CC1CC1 [Example 15, (R)-9-bromo-1-(cyclopropylethynyl)-4-((1-methyl-1H-pyrazol-4-yl)methyl-d2)-N-(1-methylcyclopropyl)-5-oxo-1,2,4,5-tetrahydroimidazo[1,2-a]quinazoline-7-sulfonamide] | < 100
18 | [2H]C([2H])(c1cnn(C)c1)N1C(=O)c2cc(S(=O)(=O)NC3(C)CC3)cc(Cl)c2N2C1=NC[C@H]2C#CC1CC1 [Example 16, (R)-9-chloro-1-(cyclopropylethynyl)-4-((1-methyl-1H-pyrazol-4-yl)methyl-d2)-N-(1-methylcyclopropyl)-5-oxo-1,2,4,5-tetrahydroimidazo[1,2-a]quinazoline-7-sulfonamide] | < 100
19 | Cn1cc(CN2C(=O)c3cc(S(=O)(=O)NC4(C)CC4)cc(-c4ccc(F)cc4)c3N3CC(C)(C)N=C23)cn1 [Example 17, 9-(4-fluorophenyl)-2,2-dimethyl-4-((1-methyl-1H-pyrazol-4-yl)methyl)-N-(1-methylcyclopropyl)-5-oxo-1,2,4,5-tetrahydroimidazo[1,2-a]quinazoline-7-sulfonamide] | < 100
20 | Cn1cc(CN2C(=O)c3cc(S(=O)(=O)NC4(C)CC4)cc(Br)c3N3CCN=C23)cn1 [Example 18, 9-bromo-4-((1-methyl-1H-pyrazol-4-yl)methyl)-N-(1-methylcyclopropyl)-5-oxo-1,2,4,5-tetrahydroimidazo[1,2-a]quinazoline-7-sulfonamide] | 100 to 1000
21 | CC(C)OC[C@@H]1CN=C2N(Cc3cnn(C)c3)C(=O)c3cc(S(=O)(=O)NC4(C)CC4)ccc3N21 [Example 19, (S)-1-(isopropoxymethyl)-4-((1-methyl-1H-pyrazol-4-yl)methyl)-N-(1-methylcyclopropyl)-5-oxo-1,2,4,5-tetrahydroimidazo[1,2-a]quinazoline-7-sulfonamide] | < 100
22 | Cc1cc(F)ccc1-c1cc(S(=O)(=O)NC2(C)CC2)cc2c1N1CCN=C1N(Cc1cnn(C)c1)C2=O [Example 20, 9-(4-fluoro-2-methylphenyl)-4-((1-methyl-1H-pyrazol-4-yl)methyl)-N-(1-methylcyclopropyl)-5-oxo-1,2,4,5-tetrahydroimidazo[1,2-a]quinazoline-7-sulfonamide] | < 100
23 | Cn1cc(CN2C(=O)c3cc(S(=O)(=O)NC4(C)CC4)cc(-c4ccc(Cl)cc4)c3N3CCN=C23)cn1 [Example 21, 9-(4-chlorophenyl)-4-((1-methyl-1H-pyrazol-4-yl)methyl)-N-(1-methylcyclopropyl)-5-oxo-1,2,4,5-tetrahydroimidazo[1,2-a]quinazoline-7-sulfonamide] | 100 to 1000
24 | C[C@@H]1CN=C2N(Cc3cnn(C)c3)C(=O)c3cc(S(=O)(=O)NC4(C)CC4)cc(C4CCN(C)CC4)c3N21 [Example 22, (R)-1-methyl-4-((1-methyl-1H-pyrazol-4-yl)methyl)-N-(1-methylcyclopropyl)-9-(1-methylpiperidin-4-yl)-5-oxo-1,2,4,5-tetrahydroimidazo[1,2-a]quinazoline-7-sulfonamide] | 100 to 1000
